Laboratory results taken from patent US11026940B2, “Compositions for the mobilization, homing, expansion and differentiation of stem cells and methods of using the same” (Ampio Pharmaceuticals, Inc., priority 2013, dated 2021).
Several values for one entry are separate records, joined by “and”; a condition that tells them apart may be missing. Equal values may be shown once.

Columns and labels:
Format in all cases: cell-based, human
Collagen 2A1 = experiment: Stem cell chondrogenesis, real time PCR gene expression: Collagen 2A1; conditions: for Mean regulation / regulation: vs saline; for Mean ΔCp / ΔCp: Collagen 2A1 vs GAPDH; for regulation, Collagen 2A1 / Mean regulation, Collagen 2A1: fold regulation vs saline; for regulation, Collagen 2A1 / ΔCp, Collagen 2A1 / 2^-ΔΔCp vs saline, Collagen 2A1 / ΔΔCp vs saline, Collagen 2A1: single replicate well; for Mean regulation, Collagen 2A1 / Mean ΔCp, Collagen 2A1: triplicate wells; for ΔCp, Collagen 2A1: human bone marrow MSC, chondrogenic medium + TGF beta 3; for ΔCp, Collagen 2A1 / 2^-ΔΔCp vs saline, Collagen 2A1 / ΔΔCp vs saline, Collagen 2A1 / Mean ΔCp, Collagen 2A1: vs Actin
Description: (§1) • Stem Cells: Bone marrow derived human mesenchymal stem cells: Passage 5 Bone marrow derived human mesenchymal stem cells (HUXMA-01001, Cyagen Biosciences, Sunnyvale Calif.) • Mesenchymal Stem Cell Chondrogenic Differentiation medium (GUXMX-90041, Cyagen Biosciences, Sunnyvale Calif.) • TheraPEAK MSCGM chemically defined Stem cell medium (190632 Lonza) • 1 mM Dexamethasone acetate and mifepristone in absolute ethanol (Sigma) • Saline or 0.9% Sodium chloride for injection ZR Flush (Excelsior Medical, Neptune N.J.) • Sterile filtered 0.6 mM sodium caprylate in saline (sigma) • Sterile filtered 3 mM NAT in saline (sigma); To prepare, heat at 60° C. for 30 minutes then sonicate for 5 minutes. • Sterile filtered 10 mM DADKP in saline • 0.2 μM syringe filters • Hepes buffered saline, Trypsin/EDTA, Trypsin neutralizing solution (Lonza reagent pack) • 182 cm2 tissue culture flasks • pipettes and sterile tips • Tissue culture hood, humidified CO2 incubator, water or bead bath • 24 well tissue culture plates • Qiagen RNeasy plus spin columns (Qiagen 74134) • Qiagen RT2 qPCR primer pairs for Collagen 2A1, MMP13, TIMP1, Aggrecan, GAPDH, and Actin B • Roche Sybr green I master mix and Invitrogen Superscript VILO master mix. • Roche 480 lightcycler
(§2) The following stock drug treatment solutions were prepared in saline for injection and warmed to 37° C. in bath: • 4 μM dexamethasone • 4 μM mifepristone • 3 mM NAT • 0.6 mM caprylate • 80 μM DADKP • Mix of 3 mM NAT, 0.6 mM caprylate, 80 μM DADKP (“Ampion” mix)
(§3) Cyagen Chondrogenic Differentiation medium was prepared by manufacturer protocols but excluding dexamethasone and TGF beta 3 supplements, and warmed to 37° C. in bath.
(§4) The treatment protocol included expanding 5 HUXMA stem cells in 182 cm^2 flasks containing 40 mls TheraPEAK™ MSCGM to 80-90% confluence. Cells were trypsinized from the flasks and a 1.0×10^7 cell suspension of HUXMA stem cells was warmed in Cyagen Chondrogenic Differentiation medium. 20 μl of warmed cell suspension was spotted in the middle of each well of a 24-well tissue culture plate (200,000 cells per spot), and incubated at 37° C. and 5% CO2 for one hour.
(§5) The plates were removed from the incubator and an additional 720 μl chondrogenic medium was added to each well. 250 μl saline, or drug solutions were added to the appropriate wells in triplicate (bringing the final drug dilution to one-quarter of the stock drug treatment solution concentrations). 10 μl of TGF beta 3 solution (supplied by Cyagen) was added to each well, and the plates were returned to the incubator.
(§6) RNA isolation and analysis was conducted for all plates as follows at days 7, 14, and 22 post treatment (with the described medium exchanges). […] Qiagen RNeasy plus lysis buffer (with 2mercaptoethanol) was added to each well and gently shaken for 10 minutes. The lysed cell suspensions from each well were transferred to Qiashredder columns and spun at 14,000 rpm for 2 minutes. RNA isolation proceeded by RNeasy™ plus manufacturer's protocol. RNA was eluted from the Qiagen columns using 25 μl RNase free water.
(§7) cDNA synthesis and real time PCR was conducted as follows. First strand synthesis of cDNA from all samples was performed in 20 μl total volume using 10 μl isolated RNA. All cDNA reactions were then diluted with 30 μl nuclease free water. Real time PCR was then performed using 5 μl diluted cDNA, Roche Syber green master mix, and Qiagen RT^2 gPCR™ primer pairs in 20 μl total reaction volume. Relative gene expression was determined by delta deta Ct method.

MMP13 = experiment: Stem cell chondrogenesis, real time PCR gene expression: MMP13; conditions: for Mean regulation: vs saline; for Mean ΔCp / ΔCp: MMP13 vs GAPDH
Description: as §1, §2, §3, §4, §5, §6, §7

SOX9 = experiment: Stem cell chondrogenesis, real time PCR gene expression: SOX9; conditions: Day 14
Description: The treatment protocol included expanding 5 HUXMA stem cells in 182 cm^2 flasks containing 40 […] to 80-90% confluence. Cells were trypsinized from the flasks and a 1.0×10^7 cell suspension of HUXMA stem cells was warmed in Cyagen Chondrogenic Differentiation medium. 20 μl of warmed cell suspension was spotted in the middle of each well of a 24-well tissue culture plate (200,000 cells per spot), and incubated at 37° C. and 5% CO2 for one hour. […] Medium exchanges were performed every 3-4 days by aspirating the medium from the wells and replacing with fresh chondrogenic medium, diluted stocks, and TGF beta 3, as described above. […] Medium from the wells was removed and saved for further protein analysis. Qiagen RNeasy plus lysis buffer (with 2mercaptoethanol) was added to each well and gently shaken for 10 minutes. The lysed cell suspensions from each well were transferred to Qiashredder columns and spun at 14,000 rpm for 2 minutes. RNA isolation proceeded by RNeasyTM plus manufacturer's protocol. RNA was eluted from the Qiagen columns using 25 μl RNase free water. cDNA synthesis and real time PCR was conducted as follows. First strand synthesis of cDNA from all samples was performed in 20 μl total volume using 10 μl isolated RNA. All cDNA reactions were then diluted with 30 μl nuclease free water. Real time PCR was then performed using 5 μl diluted cDNA, Roche Syber green master mix, and Qiagen RT^2 gPCRTM primer pairs in 20 μl total reaction volume.

Aggrecan = experiment: Stem cell chondrogenesis, real time PCR gene expression: Aggrecan; conditions: Day 22; for Mean ΔCp / ΔCp: Aggrecan vs Actin; for Mean regulation / regulation: vs saline
Description: as §1, §2, §3, §4, §5, §6, §7

TIMP1 = experiment: Stem cell chondrogenesis, real time PCR gene expression: TIMP1; conditions: Day 22; for Mean ΔCp / ΔCp: TIMP1 vs Actin
Description: as §1, §2, §3, §4, §5, §6, §7

[1] = Day 7, vs Actin, single replicate well
[2] = vs Actin, single replicate well

CC(=O)OCC(=O)[C@@]1(O)[C@H](C)C[C@H]2[C@@H]3CCC4=CC(=O)C=C[C@]4(C)[C@@]3(F)[C@@H](O)C[C@@]21C [Dexamethasone, Dexamethasone acetate]
2-^ΔΔCP vs saline (Collagen 2A1; Collagen 2A1, Day 22, Table 12): 141.7 and 196.27 and 168.51
Cp Coll (Collagen 2A1; Collagen 2A1, Day 22, Table 12): 22.42 and 21.94 and 21.42
2^-ΔΔCp vs saline (Collagen 2A1; Collagen 2A1, Day 22, Table 16): 141.7 and 196.27 and 168.51
Cp Coll (Collagen 2A1; Collagen 2A1, Day 22, Table 16): 22.42 and 21.94 and 21.42
Mean regulation (Collagen 2A1; Collagen 2A1, Day 22, Table 12): 168.82
regulation (Collagen 2A1; Collagen 2A1, Day 22, Table 12): 141.70 and 196.27 and 168.51
Mean regulation (Collagen 2A1; Collagen 2A1, Day 22, Table 16): 168.82
regulation (Collagen 2A1; Collagen 2A1, Day 22, Table 16): 141.70 and 196.27 and 168.51
Mean ΔCp (Collagen 2A1; Day 22, Table 12): 5.76
ΔCp (Collagen 2A1; Day 22, Table 12): 6 and 5.53 and 5.75
Mean ΔCp (Collagen 2A1; Day 22, Table 16): 5.76
ΔCp (Collagen 2A1; Day 22, Table 16): 6 and 5.53 and 5.75
regulation, Collagen 2A1 (Collagen 2A1; Day 7): −1.01 and 2.61 and 2.72
Mean regulation, Collagen 2A1 (Collagen 2A1; Day 7): 1.44
ΔCp, Collagen 2A1 (Collagen 2A1; Day 7): 6.75 and 5.35 and 5.29
2^-ΔΔCp vs saline, Collagen 2A1 (Collagen 2A1; Day 7): 0.9885 and 2.6087 and 2.7195
ΔΔCp vs saline, Collagen 2A1 (Collagen 2A1; Day 7): 0.017 and −1.38 and −1.44
Mean ΔCp, Collagen 2A1 (Collagen 2A1; Day 7): 5.797
regulation, Collagen 2A1 (Collagen 2A1; Day 14): 7.29 and 10.39 and 6.57
Mean regulation, Collagen 2A1 (Collagen 2A1; Day 14): 8.08
ΔCp, Collagen 2A1 (Collagen 2A1; Day 14): 8.19 and 7.68 and 8.34
2^-ΔΔCp vs saline, Collagen 2A1 (Collagen 2A1; Day 14): 7.2938 and 10.387 and 6.5735
ΔΔCp vs saline, Collagen 2A1 (Collagen 2A1; Day 14): −2.87 and −3.38 and −2.72
Mean ΔCp, Collagen 2A1 (Collagen 2A1; Day 14): 8.07
regulation, MMP13 (MMP13; Day 7, fold regulation vs saline, single replicate well): −1.62 and 1.64 and 1.33
Mean regulation, MMP13 (MMP13; Day 7, fold regulation vs saline, triplicate wells): 0.45
ΔCp, MMP13 (MMP13; Day 7, human bone marrow MSC, chondrogenic medium + TGF beta 3, vs Actin, single replicate well): 5.33 and 3.92 and 4.23
2^-ΔΔCp vs saline, MMP13 (MMP13; [1]): 0.6184 and 1.6434 and 1.3256
ΔΔCp vs saline, MMP13 (MMP13; [1]): 0.693 and −0.72 and −0.41
Mean ΔCp, MMP13 (MMP13; Day 7, vs Actin, triplicate wells): 4.493
Cp, MMP13 (MMP13; MMP13, Day 22, Table 12): 20.77 and 20.68 and 20.35
ΔΔCp vs saline (MMP13; MMP13, Day 22, Table 12): 1.357 and 1.277 and 1.687
2^-ΔΔCp vs saline (MMP13; MMP13, Day 22, Table 16): 0.3905 and 0.4127 and 0.3106
Cp, MMP13 (MMP13; MMP13, Day 22, Table 16): 20.77 and 20.68 and 20.35
ΔΔCp vs saline (MMP13; MMP13, Day 22, Table 16): 1.357 and 1.277 and 1.687
Mean regulation (MMP13; MMP13, Day 22, Table 12): −2.73
Mean regulation (MMP13; MMP13, Day 22, Table 16): −2.73
Mean ΔCp (MMP13; Day 22, Table 12): 4.433
ΔCp (MMP13; Day 22, Table 12): 4.35 and 4.27 and 4.68
Mean ΔCp (MMP13; Day 22, Table 16): 4.433
ΔCp (MMP13; Day 22, Table 16): 4.35 and 4.27 and 4.68
regulation, SOX9 (SOX9; fold regulation vs saline, single replicate well): −2.04 and −1.24 and −1.80
Mean regulation, SOX9 (SOX9; fold regulation vs saline, triplicate wells): −1.69
ΔCp, SOX9 (SOX9; human bone marrow MSC, chondrogenic medium + TGF beta 3, vs Actin, single replicate well): 8.21 and 7.49 and 8.03
2^-ΔΔCp vs saline, SOX9 (SOX9; [2]): 0.4897 and 0.8066 and 0.5548
ΔΔCp vs saline, SOX9 (SOX9; [2]): 1.03 and 0.31 and 0.85
Mean ΔCp, SOX9 (SOX9; vs Actin, triplicate wells): 7.91
Mean ΔCp (Aggrecan; Table 12): 6.523
ΔCp (Aggrecan; Table 12): 6.28 and 6.69 and 6.6
Mean ΔCp (Aggrecan; Table 16): 6.523
ΔCp (Aggrecan; Table 16): 6.28 and 6.69 and 6.6
2-ΔΔCp vs saline (Aggrecan; Aggrecan, Table 12): 15.313 and 11.525 and 12.267
Cp Agg (Aggrecan; Aggrecan, Table 12): 20.48 and 20.68 and 20.44
2^-ΔΔCp vs saline (Aggrecan; Aggrecan, Table 16): 15.313 and 11.525 and 12.267
Cp Agg (Aggrecan; Aggrecan, Table 16): 20.48 and 20.68 and 20.44
Mean regulation (Aggrecan; Aggrecan, Table 12): 13.03
regulation (Aggrecan; Aggrecan, Table 12): 15.31 and 11.52 and 12.27
Mean regulation (Aggrecan; Aggrecan, Table 16): 13.03
regulation (Aggrecan; Aggrecan, Table 16): 15.31 and 11.52 and 12.27
Cp TIMP1 (TIMP1; TIMP1, Table 12): 17.35 and 16.81
2-^ΔΔCp vs saline (TIMP1; TIMP1, Table 16): 1.5333 and 1.3256 and 1.7371
Cp TIMP1 (TIMP1; TIMP1, Table 16): 17.35 and 16.81
Mean regulation (TIMP1; TIMP1, vs saline, Table 12): 1.53
regulation (TIMP1; TIMP1, vs saline, Table 12): 1.33 and 1.74 and 1.53
regulation (TIMP1; TIMP1, vs saline, Table 16): 1.53 and 1.33 and 1.74
Mean ΔCp (TIMP1; Table 12): 3.16
ΔCp (TIMP1; Table 12): 3.36 and 2.97 and 3.15
Mean ΔCp (TIMP1; Table 16): 3.16
ΔCp (TIMP1; Table 16): 3.15 and 3.36 and 2.97
